According to PubChem BioAssay (NCI):
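Test compounds were applied to cells in 96-well plates for 48 hours at 5 doses. TGI: total growth inhibition.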 Where a SMILES comes first, the peptide text is derived from it. [ ]: non-standard residue; d: D form. The star is where a group is joined. Phe(4-NO2) = N[CH](Cc1ccc([N+](=O)[O-])cc1)C(=O)O; Boc = CC(C)(C)OC(=O)*; OBn = c1ccc(CO*)cc1

Experiments:
Test in all cases: NCI-60 cell line screen, 48 h
EKVX NSCLC = system: EKVX NSCLC
HS 578T breast = system: HS 578T breast
RPMI-8226 leukemia = system: RPMI-8226 leukemia
SNB-19 CNS = system: SNB-19 CNS
DU-145 prostate = system: DU-145 prostate
COLO 205 colon = system: COLO 205 colon
HCT-15 colon = system: HCT-15 colon
HOP-92 NSCLC = system: HOP-92 NSCLC
NCI/ADR-RES ovarian = system: NCI/ADR-RES ovarian
MDA-MB-435 = system: MDA-MB-435

Compound	TGI (EKVX NSCLC) [µM]	TGI (HS 578T breast) [µM]	TGI (RPMI-8226 leukemia) [µM]	TGI (SNB-19 CNS) [µM]	TGI (DU-145 prostate) [µM]	TGI (COLO 205 colon) [µM]	TGI (HCT-15 colon) [µM]	TGI (HOP-92 NSCLC) [µM]	TGI (NCI/ADR-RES ovarian) [µM]	TGI (MDA-MB-435) [µM]
Oc1ccc(Cl)cc1C1=N/C(=N\CN2CCN(C/N=C3/N=C(c4cc(Cl)ccc4O)CC(c4ccccc4)N3)CC2)NC(c2ccccc2)C1 (stereo not drawn)	> 100	> 100	76.1	> 100	> 100	> 100	> 100	> 100	> 100	> 100
CN1CC2=C(OC(N)=C(C#N)C2c2cccs2)/C(=C/c2cccs2)C1 (stereo not drawn)	> 60.2	> 100	> 42.7	> 100	81.7	> 100	> 100	> 100	23.6	22.5
COC(=O)CCC(NC(=O)OC(C)(C)C)C(=O)NC(Cc1ccc([N+](=O)[O-])cc1)C(=O)NCC(=O)OCc1ccccc1 (stereo not drawn) (Boc-Glu(OMe)-[Phe(4-NO2)]-Gly-OBn; configuration not given here)	> 100	> 64.4	> 100	> 100	> 100	> 100	> 100	> 95.1	> 100	> 100
CCN1CC(C)Cn2c(=O)[nH]c3cc(Br)cc1c32 (stereo not drawn)	52	74.3	> 100	> 100	> 100	> 100	> 100		> 100	9.74
N=C(N)SCCON1C(=O)c2ccccc2C1=O	> 100	> 100	> 100	> 100	> 100	> 100	> 100	> 100	> 100	> 100
CC(=O)O/C=C\OC1CCCC1(c1ccccc1)c1ccccc1 (stereo not drawn)	20.7	9.8	6.13	26.3	13.7	13.8	4.7	3.89	8.53	4.11
O=C(Nc1ccccc1)O/N=C(/CBr)c1ccccc1	35.1	90.6	51.3	53.9	38.1	32.9	22.2	33.2	> 100	21.5
CC(=O)NCCCCNCCCNC(C)=O	> 100	> 100	> 100	> 100	> 100	> 100	> 100	> 100	> 100	> 100
CCNC(=O)Nc1cccc(C)n1	> 100	> 100		> 100	> 100	> 100		> 100		> 100
c1ccc(CNc2c3c(nc4ccccc24)CCC3)cc1	42.9	65.5	29.9	67.7	62.5	25	68.4	25.9	44.2	30.6
Cc1ccc(S(=O)(=O)N/C(=C\C=C\c2ccccc2)C(=O)C(C)(C)C)cc1	> 100	> 100	75.9	> 100	> 100	> 100	> 100	71.9	> 100	> 100
O=C(NCCN(CCNC(=O)c1cccc(=O)n1O)CCN(CCNC(=O)c1cccc(=O)n1O)CCNC(=O)c1cccc(=O)n1O)c1cccc(=O)n1O		> 100	> 100	> 100	> 100	> 100	> 100	> 100	> 100	> 100
CN(C)c1ccc(/C=N/Nc2nc3ccccc3c(=O)n2-c2ccccc2)cc1				> 100	> 100	> 100	> 100	85.9	> 100	> 100
CC(C)(C)OC(=O)n1cc(C2CNC(=O)C23CCC(=O)N3Cc2ccccc2)c2ccccc21 (stereo not drawn)	54.6	86.5	40.8	> 100	55.4	33.4		26.7	> 100	42.3
S=C1c2ccccc2NC(=NC2CCCC2)C2CSCN12 (stereo not drawn)	> 100	> 100	> 100	> 100	> 100	> 100	> 100		> 100	> 100
COc1ccc(N2C=Nn3c(nc4sc(C)c(C)c4c3=O)C2)cc1	> 100	> 100	> 100	> 100	> 100	> 100	> 100	> 100	> 100	> 100
CSc1c(C(=O)Nc2ccccc2)c(N)nn1-c1ccccc1	> 100	> 100	> 100	> 100	> 100	> 100	> 100		> 100	> 100
Cc1ccc(C(=O)OC[C@H]2CC[C@@H](n3cc(N(C)C4CCCCC4)c(=O)[nH]c3=O)O2)cc1	> 100	> 100	77.9	61.4	> 100	39.5	93		56.7	> 100
CCC(C)[C@H](NC(=O)N[C@H](C)c1ccccc1)C(=O)OC (stereo partly drawn)	> 100		> 100	> 100	> 100	> 100	> 100	> 100		> 100
Cc1cc2c(cc1Cl)Sc1nnc(Nc3ccccc3)n1S2(=O)=O	34.3	12.6	6.91		> 100		28.9	28.8	23.4	54.8
CCC(CCCN)Nc1cc(OC)cc2cccnc12 (stereo not drawn)	> 100	> 100		> 100	> 100	> 100	> 100	> 100	> 100	> 100
